{"source": "ChEMBL document CHEMBL5252565", "about": "“Advances in research on 3C-like protease (3CLpro) inhibitors against SARS-CoV-2 since 2020” (RSC Med Chem, 2023)", "key": {"Homo sapiens [1]": {"organism": "Homo sapiens", "assay": "Antiviral activity against SARS-CoV-2 infected in human A549-ACE2 cells", "assay_type": "functional, cell-based"}, "[2]": {"target": "T1, Replicase polyprotein 1ab (Severe acute respiratory syndrome coronavirus 2, UniProt P0DTD1)", "assay": "Inhibition of SARS-CoV-2 3CL protease"}, "SARS-CoV-2 [3]": {"system": "SARS-CoV-2", "assay": "Antiviral activity against SARS-CoV-2 infected in African green monkey Vero E6 cells assessed as reduction in infection measured after 24 hrs by Plaque assay", "assay_type": "functional, organism-based", "settings": "Severe acute respiratory syndrome coronavirus 2, Vero C1008, 24 h"}, "[4]": {"target": "T1, Replicase polyprotein 1ab", "assay": "Inhibition of SARS-CoV-2 HKU-001a 3CL protease"}, "[5]": {"assay": "Oral bioavailability in Sprague-Dawley rat by LC-MS/MS analysis", "assay_type": "ADME, organism-based", "settings": "in vivo"}, "[6]": {"assay": "Oral bioavailability in mouse by LC-MS/MS analysis", "assay_type": "ADME, organism-based", "settings": "in vivo"}, "[7]": {"assay": "Oral bioavailability in Beagle dog by LC-MS/MS analysis", "assay_type": "ADME, organism-based, Canis lupus familiaris", "settings": "in vivo"}, "SARS-CoV-2 [8]": {"system": "SARS-CoV-2", "assay": "Antiviral activity against SARS-CoV-2 infected in […] Caco-2 cells", "assay_type": "functional, organism-based", "settings": "Severe acute respiratory syndrome coronavirus 2, Caco-2"}, "SARS-CoV-2 [9]": {"system": "SARS-CoV-2", "assay": "Antiviral activity against SARS-CoV-2 infected in African green monkey Vero E6 cells", "assay_type": "functional, organism-based", "settings": "Severe acute respiratory syndrome coronavirus 2, Vero C1008"}, "Trypsin": {"target": "Trypsin (Homo sapiens, UniProt P07477+P07478+P35030)", "assay": "Inhibition of human Trypsin using Z-Phe-Arg-AMC as substrate incubated for 30 mins by FRET assay", "assay_type": "protein assay"}, "Caspase-3": {"target": "T2, Caspase-3 (Homo sapiens, UniProt P42574)", "T2 sequence (P42574 whole entry)": "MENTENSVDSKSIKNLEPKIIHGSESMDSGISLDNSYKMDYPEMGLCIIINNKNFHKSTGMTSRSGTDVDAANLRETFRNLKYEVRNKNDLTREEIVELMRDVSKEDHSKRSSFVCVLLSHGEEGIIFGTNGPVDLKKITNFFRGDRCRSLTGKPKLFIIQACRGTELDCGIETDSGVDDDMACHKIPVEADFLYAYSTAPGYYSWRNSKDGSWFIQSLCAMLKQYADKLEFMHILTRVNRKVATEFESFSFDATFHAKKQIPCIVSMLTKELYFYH", "assay": "Inhibition of human caspase 3 using Z-Phe-Arg-AMC as substrate incubated for 30 mins by FRET assay"}, "[10]": {"assay": "Inhibition of human cathepsin using Z-Phe-Arg-AMC as substrate incubated for 30 mins by FRET assay"}, "Calpain1/2": {"target": "T3, Calpain1/2 (Homo sapiens, UniProt P17655+P07384)", "T3 sequence (P17655 whole entry)": "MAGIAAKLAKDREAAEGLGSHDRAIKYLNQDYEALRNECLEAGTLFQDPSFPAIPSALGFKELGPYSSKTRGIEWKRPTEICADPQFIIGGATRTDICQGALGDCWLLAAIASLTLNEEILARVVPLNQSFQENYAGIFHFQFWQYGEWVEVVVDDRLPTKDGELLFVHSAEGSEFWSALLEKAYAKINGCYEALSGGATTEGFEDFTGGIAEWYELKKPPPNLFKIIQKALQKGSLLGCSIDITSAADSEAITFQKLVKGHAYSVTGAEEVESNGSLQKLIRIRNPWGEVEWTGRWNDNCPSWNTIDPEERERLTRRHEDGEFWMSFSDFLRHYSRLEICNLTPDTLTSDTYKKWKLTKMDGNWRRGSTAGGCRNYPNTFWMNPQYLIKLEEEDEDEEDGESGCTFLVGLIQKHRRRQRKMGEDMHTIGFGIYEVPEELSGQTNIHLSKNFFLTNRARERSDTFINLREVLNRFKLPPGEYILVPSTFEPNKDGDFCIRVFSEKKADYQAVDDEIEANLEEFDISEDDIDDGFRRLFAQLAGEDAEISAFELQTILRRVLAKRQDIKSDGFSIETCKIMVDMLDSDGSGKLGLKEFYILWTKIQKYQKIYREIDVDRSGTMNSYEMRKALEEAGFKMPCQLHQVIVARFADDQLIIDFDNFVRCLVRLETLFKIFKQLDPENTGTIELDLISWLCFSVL", "T3 sequence (P07384 whole entry)": "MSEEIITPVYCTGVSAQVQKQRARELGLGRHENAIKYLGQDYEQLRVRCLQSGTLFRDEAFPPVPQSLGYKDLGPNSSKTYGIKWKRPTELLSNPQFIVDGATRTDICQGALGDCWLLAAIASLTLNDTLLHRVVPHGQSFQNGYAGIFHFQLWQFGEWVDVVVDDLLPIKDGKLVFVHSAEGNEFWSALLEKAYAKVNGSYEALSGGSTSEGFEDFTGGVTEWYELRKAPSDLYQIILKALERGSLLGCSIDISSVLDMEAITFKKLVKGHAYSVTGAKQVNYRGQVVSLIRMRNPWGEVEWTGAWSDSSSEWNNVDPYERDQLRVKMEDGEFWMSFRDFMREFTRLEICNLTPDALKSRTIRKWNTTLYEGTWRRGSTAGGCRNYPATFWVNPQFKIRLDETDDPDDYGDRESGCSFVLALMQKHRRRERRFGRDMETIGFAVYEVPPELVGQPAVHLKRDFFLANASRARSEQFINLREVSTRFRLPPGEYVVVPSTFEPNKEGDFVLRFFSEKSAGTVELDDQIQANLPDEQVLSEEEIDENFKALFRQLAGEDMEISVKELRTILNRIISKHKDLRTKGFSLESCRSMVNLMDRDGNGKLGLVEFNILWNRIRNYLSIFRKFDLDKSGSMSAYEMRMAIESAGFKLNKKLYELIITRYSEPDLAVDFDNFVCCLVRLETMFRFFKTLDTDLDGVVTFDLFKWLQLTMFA", "assay": "Inhibition of human calpain using Z-Phe-Arg-AMC as substrate incubated for 30 mins by FRET assay", "assay_type": "protein assay"}, "[11]": {"target": "T1, Replicase polyprotein 1ab", "assay": "Inhibition of SARS-CoV-2 3CL protease expressed in escherichia coli measured after 24 hrs by SDS-PAGE"}, "Homo sapiens [12]": {"organism": "Homo sapiens", "assay": "Antiviral activity against SARS-CoV-2 infected in human A549-ACE2 cells by immunofluorescence microscopic technique", "assay_type": "functional, cell-based"}}, "data": [{"smiles": "Cc1ccc(NC(=O)c2ccc(CN3CCN(C)CC3)cc2)cc1Nc1nc(-c2cccnc2)cs1", "note": "[MASITINIB]", "values": [{"measurement": "EC50", "setting": "Homo sapiens [1]", "result": 3200, "unit": "nM"}]}, {"smiles": "O=C[C@H](C[C@@H]1CCNC1=O)NC(=O)[C@@H]1[C@H]2CCC[C@H]2CN1C(=O)CCc1cc(F)cc(F)c1", "values": [{"measurement": "IC50", "setting": "[2]", "result": 7600, "unit": "nM"}]}, {"smiles": "O=C[C@H](C[C@@H]1CCNC1=O)NC(=O)[C@H](Cc1cccc(F)c1)NC(=O)c1cc2ccccc2[nH]1", "values": [{"measurement": "IC50", "setting": "SARS-CoV-2 [3]", "result": 720, "unit": "nM"}]}, {"smiles": "[2H][C@](C(=O)N[C@@H](C)c1ccc(F)cc1)(c1cccnc1)N(C(=O)C(C)=O)c1ccc2c(c1)oc1ccccc12", "values": [{"measurement": "IC50", "setting": "[4]", "result": 8.1, "unit": "nM"}, {"measurement": "bioavailability", "setting": "[5]", "result": 31.9, "unit": "%"}, {"measurement": "bioavailability", "setting": "[6]", "result": 92.9, "unit": "%"}, {"measurement": "bioavailability", "setting": "[7]", "result": 85.7, "unit": "%"}]}, {"smiles": "C[C@H](NC(=O)[C@@H](c1cccnc1)N(C(=O)C(Cl)Cl)c1ccc(-c2ccccc2)cc1)c1ccccc1", "values": [{"measurement": "EC50", "setting": "SARS-CoV-2 [8]", "result": 2050, "unit": "nM"}, {"measurement": "EC50", "setting": "SARS-CoV-2 [9]", "result": 900, "unit": "nM"}, {"measurement": "IC50", "setting": "Trypsin", "result": "> 20000", "unit": "nM"}, {"measurement": "IC50", "setting": "Caspase-3", "result": "> 20000", "unit": "nM"}, {"measurement": "IC50", "setting": "[10]", "result": "> 20000", "unit": "nM"}, {"measurement": "IC50", "setting": "Calpain1/2", "result": "> 20000", "unit": "nM"}]}, {"smiles": "CNC(=O)c1cc(Br)cc([N+](=O)[O-])c1N[C@@H]1CCCC[C@@H]1NC(=O)c1cccc2ccccc12", "values": [{"measurement": "IC50", "setting": "[11]", "result": 72, "unit": "nM"}, {"measurement": "EC50", "setting": "Homo sapiens [12]", "result": 12, "unit": "nM"}]}]}
